{"source": "patent US8372848B2", "about": "“Melanin-concentrating hormone receptor antagonists and methods of use” (Mixture Sciences, Inc., priority 2004, dated 2013)", "key": {"rats [1]": {"tested_on": "rats", "test": "Conditioned place aversion (CPA), Example VII", "format": "in vivo, rat", "details": "10 nmole i.c.v. on conditioning days 2,3; test day 4; listed as TPI", "protocol": "Rats were randomly divided into two (2) groups of eight (8) rats each (Groups I and II). Testing was performed in four identical place-conditioning chambers (43×43×30.5 cm) connected to a common interface and computer (MED Associates, Inc., St. Albans, Vt.). Test chambers had two equal compartments, each with unique sensory cues. One compartment had black and white striped walls, a stainless-steel wire mesh floor (0.16-cm wire with 1.27-cm openings), corncob bedding, and lemon-scented water applied to the walls immediately before each test. The other compartment had white walls with black dots, stainless-steel grid floor (0.48-cm rods placed 1.6 cm apart), wood-chip bedding, and banana-scented water applied to the walls. The two compartments were separated by a middle wall with a black guillotine door in the center. All rats were weighed and acclimated to the test room for 20 min each day before being placed into the apparatus.\nThe CPA test consisted of three phases. During the preconditioning phase (day 1), the animals were placed into the chamber for 15 min. During the conditioning phase (day 2,3), animals were injected i.c.v with either 0 (Group I—n=8) or 10 nmole (Group 2—n=8) of TPI and confined to one side for 20 min. […] The activity of the animals was monitored for 15 min."}, "rat MCH1R [2]": {"biological_target": "T1, rat MCH1R (Rattus norvegicus, UniProt P97639)", "T1 sequence (P97639 whole entry)": "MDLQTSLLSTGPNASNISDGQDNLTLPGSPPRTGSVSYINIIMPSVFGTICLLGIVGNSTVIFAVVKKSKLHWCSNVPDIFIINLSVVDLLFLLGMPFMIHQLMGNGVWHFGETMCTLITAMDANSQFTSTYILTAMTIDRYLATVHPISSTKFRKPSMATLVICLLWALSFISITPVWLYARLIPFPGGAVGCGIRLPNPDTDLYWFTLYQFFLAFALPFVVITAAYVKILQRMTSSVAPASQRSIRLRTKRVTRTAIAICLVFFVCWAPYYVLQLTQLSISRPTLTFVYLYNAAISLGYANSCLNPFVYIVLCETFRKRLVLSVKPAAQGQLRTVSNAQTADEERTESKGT", "test": "MCH-induced Ca2+ mobilization (FLIPR) in HEK 293T cells expressing rat MCH1R", "format": "cell-based"}, "rat MCH1R [3]": {"biological_target": "T1, rat MCH1R", "test": "[125I] MCH binding to membrane fractions of MCH1R expressing HEK-293T", "protocol": "Cell pellet was homogenized with ice-cold 50 mM Tris-HCl buffer (pH 7.4) containing 5 mM EDTA, and ultra-centrifuged twice at 48,000×g for 20 min at 4° C. The pellets were then suspended in 50 mM Tris-HCl (pH 7.4) buffer containing 5 mM EDTA and used as membrane fractions. […] The radioactivity retained in the filters was determined with a γ-counter. IC50 values calculated as described above are expressed as the mean +S.E.M. for three independent determinations. DNA was mixed with LipofectAMINE transfection reagents (Life Technologies, MD), and the mixture was diluted with Opti-MEM and added to 60-70% confluent HEK 293T cells plated on 100-mm dishes. The transfected cells were cultured in DMEM containing 10% FBS."}, "human MCH2R": {"biological_target": "human MCH2R (Homo sapiens, UniProt Q969V1)", "sequence (Q969V1 whole entry)": "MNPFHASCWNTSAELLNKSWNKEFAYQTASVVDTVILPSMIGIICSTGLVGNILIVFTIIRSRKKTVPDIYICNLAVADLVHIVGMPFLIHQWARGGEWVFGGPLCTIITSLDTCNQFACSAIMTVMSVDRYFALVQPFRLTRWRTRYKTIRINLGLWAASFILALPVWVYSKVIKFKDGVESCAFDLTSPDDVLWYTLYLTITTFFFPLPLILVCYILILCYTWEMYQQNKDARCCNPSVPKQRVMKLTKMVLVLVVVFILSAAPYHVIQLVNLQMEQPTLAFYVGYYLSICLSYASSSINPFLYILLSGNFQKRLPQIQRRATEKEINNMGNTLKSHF", "test": "Selectivity versus human MCH2R", "format": "cell-based"}, "[4]": {"biological_target": "kappa opioid receptor (dynorphin) (Homo sapiens, UniProt P41145)", "sequence (P41145 whole entry)": "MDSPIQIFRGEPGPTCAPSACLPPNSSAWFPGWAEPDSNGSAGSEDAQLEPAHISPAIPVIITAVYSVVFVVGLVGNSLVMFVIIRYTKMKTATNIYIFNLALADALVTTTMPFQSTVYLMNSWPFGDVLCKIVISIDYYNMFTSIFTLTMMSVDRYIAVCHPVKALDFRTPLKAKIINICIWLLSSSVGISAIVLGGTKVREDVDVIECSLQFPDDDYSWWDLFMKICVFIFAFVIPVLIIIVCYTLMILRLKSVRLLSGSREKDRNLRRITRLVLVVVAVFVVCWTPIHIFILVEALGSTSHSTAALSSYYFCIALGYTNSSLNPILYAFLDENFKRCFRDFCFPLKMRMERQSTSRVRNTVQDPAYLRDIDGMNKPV", "test": "Selectivity versus kappa opioid receptor", "format": "cell-based"}, "rats [5]": {"tested_on": "rats", "test": "Spontaneous food and water intake after 1 hour deprivation, Example VIII", "format": "in vivo, rat", "details": "10 nM i.c.v., start of dark cycle; for 30 minute food intake following 1 hour food/water deprivation, TPI treated versus control: b181 words it as control greater than treated, p less than 0.005", "protocol": "In this example, adult male Sprague-Dawley rats, weighing 350-400 g were randomly divided into two (2) groups of eight (8) rats each (Groups I and II). The animals were housed individually in a room having an ambient temperature of 20 degrees C., a light cycle from 07:00 to 19:00 each day and a dark cycle from 19:00 to 07:00.\nIn a first experiment, food (rat chow) and water were made available ad libitum except during a 1 hour food/water deprivation period from 18:00 to 19:00. At the end of the 1 hour food/water deprivation period the animals in Group I (n=8) received 0.9% saline by i.c.v. injection and the animals in Group II (n−8) received 10 nM TPI 1361-17 (Formula IV) by i.c.v. injection. Immediately after dosing, and upon commencement of the darkness cycle, food (rat chow) and water were again made available ad libitum and food and water intake were measured for the next thirty (30) minutes. Data were compared using the non-parametric t-Test with the 0.05 level of probability and below being defined as significant."}, "rats [6]": {"tested_on": "rats", "test": "Motor activity in rats, Example VI", "format": "in vivo, rat", "details": "10 nM i.c.v.", "protocol": "Sprague Dawley rats were randomly divided into two groups (Group I and Group II) of eight (8) rats each. The rats in Group I (n=8) received 0.9% saline by i.c.v. injection. The rats in Group II (n−8) received 10 nM TPI 1361-17 (Formula IV) by i.c.v. injection. […] Once each day thereafter, for a total of ______ days, the rats were taken into a test room, allowed to acclimatize for ______ minutes, then placed in four identical chambers (43 cm×43 cm×30.5 cm) that were connected to a common interface and computer (MED Associates, Inc., St. Albans, Vt.). Horizontal movement of the rats was monitored by 16 photobeams per side evenly spaced along each wall of two adjacent sides of each test chamber."}}, "note": "“Also recorded” adds a separate entry of the source."}
{"smiles": "C[C@@H](CNCc1ccccc1)N1C[C@H](CCCNC(=N)N)N(CCc2cccc(F)c2)C1=S", "note": "[TPI 1361-17, N-(3-{(4S)-1-[(1S)-2-(benzylamino)-1-methylethyl]-3-[2-(3-fluorophenyl)ethyl]-2-thioxoimidazolidin-4-yl}propyl)guanidine]", "values": [{"measurement": "Conditioned place aversion", "setting": "rats [1]", "result": "did not cause conditioned place aversion; also recorded: lack of conditioned place aversion"}, {"measurement": "IC50", "setting": "rat MCH1R [2]; 1 nM MCH, HEK 293T cells expressing rat MCH1R", "result": 6.1, "unit": "nM"}, {"measurement": "Slope of Schild regression", "setting": "rat MCH1R [2]; r2=0.975", "result": "1.085±0.010"}, {"measurement": "Kb", "setting": "rat MCH1R [2]; read-out: Kb predicted from Schild regression", "result": 0.37, "unit": "nM"}, {"measurement": "pA2 (Schild regression)", "setting": "rat MCH1R [2]; shift of MCH dose response curves", "result": 9.43}, {"measurement": "Change of basal Ca2+ level by the compound itself", "setting": "rat MCH1R [2]; without MCH", "result": "did not change the basal Ca^2+ level"}, {"measurement": "Displacement of [125I] MCH binding to rat MCH1R", "setting": "rat MCH1R [3]", "result": "completely displaced"}, {"measurement": "IC50", "setting": "rat MCH1R [3]; mean ±S.E.M., 0.1 nM radioligand, read-out: IC50 for displacement of [125I] MCH binding", "result": "140 ± 34.6", "unit": "nM"}, {"measurement": "Affinity to / antagonism of human MCH2R", "setting": "human MCH2R", "result": "no affinity; also recorded: not appreciably antagonize"}, {"measurement": "Selectivity for MCH1R compared with human MCH2R", "setting": "human MCH2R", "result": "more than 1,000 fold"}, {"measurement": "Selectivity for MCH1R compared with kappa opioid receptor", "setting": "[4]", "result": "more than 1,000 fold"}, {"measurement": "30 minute water intake following 1 hour food/water deprivation, TPI treated versus control", "setting": "rats [5]", "result": "not significantly different"}, {"measurement": "30 minute food intake following 1 hour food/water deprivation, TPI treated versus control", "setting": "rats [5]", "result": "significantly greater"}, {"measurement": "30 minute food intake following 1 hour food/water deprivation, TPI treated versus control", "setting": "rats [5]; listed as TPI", "result": "significant decrease"}, {"measurement": "30 minute water intake following 1 hour food/water deprivation, TPI treated versus control", "setting": "rats [5]; listed as TPI", "result": "non-significant decrease"}, {"measurement": "Motor activity versus control (distance traveled, time resting, time ambulatory, ambulatory counts, time stereotypic, stereotypic counts)", "setting": "rats [6]", "result": "no significant differences"}]}
